Results taken from US11787778B2, “Bi-functional compounds and methods for targeted ubiquitination of androgen receptor” (MONTELINO THERAPEUTICS, INC., priority 2019, dated 2023).
Read-outs that look alike come from different tables or passages of the source. Where a SMILES comes first, the peptide text is derived from it. [ ]: non-standard residue; d: D form. The star is where a group is joined. X1 = O=C(COc1c(-c2csc(N3CCOCC3)n2)ccc(F)c1F)NCCCCCCN*; X2 = Fc1ccc(-c2csc(N3CCOCC3)n2)c(OCCOCCOCCN*)c1F; Dip = N[C@H](C(=O)O)C(c1ccccc1)c1ccccc1; Chg = N[C@H](C(=O)O)C1CCCCC1; NMeA = CN[C@@H](C)C(=O)O

Test system: 22Rv1
Assay: 22Rv1 cell count decrease
Assay type: cell-based
Conditions: Homo sapiens
Experimental: The human prostate cancer cell line, 22Rv1 has been reported to express a high level of AR-V7. […] Standard culture media was RPMI-1640 supplemented with 10% fetal bovine serum. The test compound initially was dissolved in DMSO at 50 mM. This stock solution was then diluted as needed for the indicated concentrations. […]

[1] = read-out: 22Rv1 cell count decrease at 10 uM for 48 hours, 22Rv1 cells, 10 uM, read-out: 22Rv1 cell count decrease at 10 uM

SMILES | inhibition at 10 µM [1] [%] | inhibition at 10 µM (22Rv1, read-out: 22Rv1 cell count decrease at 10 uM for 48 hours) [%]
O=C1CCC(N2C(=O)c3cccc(NCCCCCCNC(=O)c4cn(-c5csc(N6CCOCC6)n5)cn4)c3C2=O)C(=O)N1 (stereo not drawn) [Example 32, N-(6-((2-(2,6-dioxopiperidin-3-yl)-1,3-dioxoisoindolin-4-yl)amino)hexyl)-1-(2-morpholinothiazol-4-yl)-1H-imidazole-4-carboxamide] | 0 to 20 | 
CN[C@@H](C)C(=O)N[C@H](C(=O)N1CCC[C@H]1C(=O)N[C@H](C(=O)NCCCCCCNC(=O)COc1c(-c2csc(N3CCOCC3)n2)ccc(F)c1F)C(c1ccccc1)c1ccccc1)C1CCCCC1 [Example 26, (S)-1-((S)-2-cyclohexyl-2-((S)-2-(methylamino)propanamido)acetyl)-N-((S)-1-((6-(2-(2,3-difluoro-6-(2-morpholinothiazol-4-yl)phenoxy)acetamido)hexyl)amino)-1-oxo-3,3-diphenylpropan-2-yl)pyrrolidine-2-carboxamide] (H-[NMeA][Chg]P[Dip]-X1) | > 50 | 
CN[C@@H](C)C(=O)N[C@H](C(=O)N1CCC[C@H]1C(=O)N[C@H](C(=O)NCCOCCOCCOc1c(-c2csc(N3CCOCC3)n2)ccc(F)c1F)C(c1ccccc1)c1ccccc1)C1CCCCC1 [Example 24, (S)-1-((S)-2-cyclohexyl-2-((S)-2-(methylamino)propanamido)acetyl)-N-((S)-1-((2-(2-(2-(2,3-difluoro-6-(2-morpholinothiazol-4-yl)phenoxy)ethoxy)ethoxy)ethyl)amino)-1-oxo-3,3-diphenylpropan-2-yl)pyrrolidine-2-carboxamide] (H-[NMeA][Chg]P[Dip]-X2) |  | > 50
